Laboratory results reported in patent publication US5041426A, “Immune system enhancing 3-β-d-ribofuranosylthiazolo[4,5-d]pyridimine nucleosides and nucleotides” (priority 1988, dated 1991).

How the values were obtained:
YAC1 target cells [1] = assay: Natural killer cell activity in old C57BL/6J mice (in vivo treatment, spleen cells); design: species or system mouse
Description: For this test compound 7 was injected at a dose of 1.67 mg per mouse and 3.34 mg per mouse and after a day the natural killer cell activity of the spleen cells was determined.
i.p. route. Spleens after treatment were removed, cells were isolated and […]

murine B16 melanoma = assay: Artificially induced pulmonary metastatic foci of B16 melanoma in mice; format: in vivo, mouse; conditions: Group 2: 100 mg/kg i.p. 24 h before tumor injection
Description: Test drug, compound 7, was given to groups of test animals. The groups includes a first control group, a second group given drug 24 hours prior to intravenous tumor injection, a third group given drug both 24 hours prior to intravenously tumor injection and 72 hours post tumor injection and a fourth group given drug 72 hours post tumor injection.
^a 10 week old, female C57B1/6 mice in groups of 5 each were injected
intravenously with 5 × 10^5 of B16 melanoma tumor cells. The
mice in groups 2, 3 and 4 were treated by injection of 100 mg/kg of drug

Mouse Cytomegalovirus = assay: Antiviral activity against mouse cytomegalovirus infection in mice
YAC1 target cells [2] = assay: Natural killer cell activity in nude/nude mice (in vivo treatment, spleen cells); design: species or system mouse
Description: Compound 7 was also able to potentiate markedly the natural killer cell activity in T cell deficient (nude/nude) mice as is shown in Table 6.
^a Three mice in each group received saline or compound 7 through i.p
route, spleens were removed one day after the treatment, cells were
cells. Each value represents average ±SD cytotoxic activity of three

San Angelo Virus = format: in vivo, mouse; conditions: compound 7 5 mg/kg at -24 h, saline days 0-6; of mice that died
P388 = assay: Response of P388 inoculated mice to various dosages, inocula and schedules; format: in vivo, mouse
Description: For this example varying concentrations of the number of test cells utilized for P388 inoculum and concentrations of compound 7 were utilized with various schedules of drug administration.
^a P388 ascites cells were implanted ip in the concentrations
indicated in BDF1 female mice on day 0, and ip bolus injections of
drug were delivered once daily on the days indicated in the conentrations
indicated. Control mice received a 0.09% solution of NaCl delivered on th

[3] = tested on: Mastocytoma (P815) tumor cells; assay: In vivo potentiation of cytotoxic lymphocytes activity against mastocytoma tumor cells; design: species or system mouse; conditions: for % Cytotoxicity: DBA/2 mice, compound 7 2 mg/mouse, interleukin-2 50 U per mouse
Description: ^a Ten mice in each group were inoculated with 2 × 10^6
tumor cells. After 5 hours, saline or nucleoside compound 7 solution (2
mg/mouse) was administered to each mouse. On days 3,5,7 or 9, spleen cell
were isolated and their cytotoxicity was determined against P815 tumor
cells as described in Gonzales and Sharma.
Compound 7 was tested to determine whether or not it can increase cytotoxic lymphocytes response against mastocytoma tumor cells. In the test mice were immunized with mastocytoma cells (P815) and after 5 hours compound 7 as a solution was given in a dose of […] per mouse.

[4] = tested on: Encephalomyocarditis virus; assay: Single versus multiple treatments on Encephalomyocarditis virus infection in mice; format: in vivo, mouse; conditions: for Mean Survival Time: of mice that died
[5] = tested on: Reticulum-cell Sarcoma M5076; assay: Mean life span of mice with metastatic reticulum-cell sarcoma; format: in vivo, mouse
Description: Effect of drug treatment on the mean life span of host animals implanted with metastatic reticulum-cell sarcoma M5076 was measured using the same test protocol as per example 54. The host animals were drug dosed for 20 days as per example 54, however, as opposed to example 54 they were monitored for survival.
^a Fragments of reticulumcell sarcoma M5076 (≈14 mg) were
implanted sc in the left flank of BDF1 female mice and ip bolus
injections of drug were initiated 24 hrs later. The drug was delivered on
the basis of 0.01 ml/g mouse weight. Control mice received a 0.09%
solution of NaCl delivered on the same basis. Six mice were used per
treatment group. Treatment give qd for days 1-20 and animals monitored
after treatment for survival.

[6] = tested on: Human Peripheral Blood Mononuclear Cells; assay: In vitro potentiation of IgM production by human PBMNC or B cells (ELISA); format: cell-based
Description: After incubation, supernatants were harvested and checked for […]

Nc1nc2c(sc(=O)n2[C@@H]2O[C@H](CO)[C@@H](O)[C@H]2O)c(=O)[nH]1 [Compound 7, 5-Amino-3-β-D-ribofuranosylthiazolo[4,5-d]pyrimidine-2,7(6H)-dione]
% Natural Killer Cell Cytotoxicity (YAC1 target cells [1]; 8 month old mice, 1.67 mg i.p., E:T 50:1): 14%
% Natural Killer Cell Cytotoxicity (YAC1 target cells [1]; 8 month old mice, 1.67 mg i.p., E:T 100:1): 19%
% Natural Killer Cell Cytotoxicity (YAC1 target cells [1]; 8 month old mice, 1.67 mg i.p., E:T 150:1): 23%
% Natural Killer Cell Cytotoxicity (YAC1 target cells [1]; 8 month old mice, 3.34 mg i.p., E:T 50:1): 17%
% Natural Killer Cell Cytotoxicity (YAC1 target cells [1]; 8 month old mice, 3.34 mg i.p., E:T 100:1): 28%
% Natural Killer Cell Cytotoxicity (YAC1 target cells [1]; 8 month old mice, 3.34 mg i.p., E:T 150:1): 38%
% Natural Killer Cell Cytotoxicity (YAC1 target cells [1]; 8 week old mice, 1.67 mg i.p., E:T 50:1): 15%
% Natural Killer Cell Cytotoxicity (YAC1 target cells [1]; 8 week old mice, 1.67 mg i.p., E:T 100:1): 20%
% Natural Killer Cell Cytotoxicity (YAC1 target cells [1]; 8 week old mice, 1.67 mg i.p., E:T 150:1): 24%
% Natural Killer Cell Cytotoxicity (YAC1 target cells [1]; 8 week old mice, 3.34 mg i.p., E:T 50:1): 17%
% Natural Killer Cell Cytotoxicity (YAC1 target cells [1]; 8 week old mice, 3.34 mg i.p., E:T 100:1): 27%
% Natural Killer Cell Cytotoxicity (YAC1 target cells [1]; 8 week old mice, 3.34 mg i.p., E:T 150:1): 31%
Mean No. Of Metastatic Foci in Lungs (murine B16 melanoma): 8
Mean Survival Time (Mouse Cytomegalovirus; 50 mg/kg/day, once a day at -2 h and days 2, 4, 6 (therapeutic)): 6.3 ± 1.1 days
Mean Survival Time (Mouse Cytomegalovirus; 50 mg/kg/day, single dose 24 h pre-virus (prophylactic)): 6.5 ± 0.8 days
Mean Survival Time (Mouse Cytomegalovirus; 100 mg/kg/day, once a day at -2 h and days 2, 4, 6 (therapeutic)): 6.0 ± 0.8 days
Mean Survival Time (Mouse Cytomegalovirus; 100 mg/kg/day, single dose 24 h pre-virus (prophylactic)): 7.0 ± 1.4 days
cure (Mouse Cytomegalovirus; 200 mg per kg, prophylactic mode): 100%
Mean Survival Time (Mouse Cytomegalovirus; 200 mg/kg/day, half-daily doses 24 and 16 h pre-virus (prophylactic)): > 21 days
% Natural Killer Cell Cytotoxicity (YAC1 target cells [2]; 1.67 mg i.p., E:T 50:1): 43 ± 12%
% Natural Killer Cell Cytotoxicity (YAC1 target cells [2]; 1.67 mg i.p., E:T 100:1): 56 ± 12%
% Natural Killer Cell Cytotoxicity (YAC1 target cells [2]; 1.67 mg i.p., E:T 150:1): 61 ± 14%
% Natural Killer Cell Cytotoxicity (YAC1 target cells [2]; 3.34 mg i.p., E:T 50:1): 38 ± 6%
% Natural Killer Cell Cytotoxicity (YAC1 target cells [2]; 3.34 mg i.p., E:T 100:1): 56 ± 6%
% Natural Killer Cell Cytotoxicity (YAC1 target cells [2]; 3.34 mg i.p., E:T 150:1): 61 ± 12%
increase with respect to saline control (YAC1 target cells [2]; both doses tested): over two fold
Mean Survival Time (San Angelo Virus): 9.6 ± 1.6 days
groups showing an increase in life span (P388; 26 of the 34 groups): 76%
% Increased Life Span (P388; Study 1, 1 × 10^2 cells, 37 mg/kg/inj day 1-9): 0%
% Increased Life Span (P388; Study 1, 1 × 10^2 cells, 37 mg/kg/inj day 1, 3 mice, printed as cures): 2 cures
% Increased Life Span (P388; Study 1, 1 × 10^2 cells, 62 mg/kg/inj day 1-9): 33%
% Increased Life Span (P388; Study 1, 1 × 10^2 cells, 62 mg/kg/inj day 1, 3 mice, printed as cures): 1 cure
% Increased Life Span (P388; Study 1, 1 × 10^2 cells, 104 mg/kg/inj day 1): 0%
% Increased Life Span (P388; Study 1, 1 × 10^2 cells, 104 mg/kg/inj day 1-9): 10%
% Increased Life Span (P388; Study 2, 1 × 10^2 cells, 8 mg/kg/inj day 1): 9%
% Increased Life Span (P388; Study 2, 1 × 10^2 cells, 13 mg/kg/inj day 1): 7%
% Increased Life Span (P388; Study 2, 1 × 10^2 cells, 22 mg/kg/inj day 1): 7%
% Increased Life Span (P388; Study 2, 1 × 10^2 cells, 37 mg/kg/inj day 1): 3%
% Increased Life Span (P388; Study 3, 1 × 10^4 cells, 37 mg/kg/inj day 1): 2%
% Increased Life Span (P388; Study 3, 1 × 10^4 cells, 37 mg/kg/inj day 1-9): 0%
% Increased Life Span (P388; Study 3, 1 × 10^4 cells, 62 mg/kg/inj day 1): 0%
% Increased Life Span (P388; Study 3, 1 × 10^4 cells, 62 mg/kg/inj day 1-9): 2%
% Increased Life Span (P388; Study 3, 1 × 10^4 cells, 104 mg/kg/inj day 1): 0%
% Increased Life Span (P388; Study 3, 1 × 10^4 cells, 104 mg/kg/inj day 1-9): 6%
% Increased Life Span (P388; Study 4, 1 × 10^6 cells, 37 mg/kg/inj day 1): 0%
% Increased Life Span (P388; Study 4, 1 × 10^6 cells, 37 mg/kg/inj day 1-9): 5%
% Increased Life Span (P388; Study 4, 1 × 10^6 cells, 62 mg/kg/inj day 1): 0%
% Increased Life Span (P388; Study 4, 1 × 10^6 cells, 62 mg/kg/inj day 1-9): 5%
% Increased Life Span (P388; Study 4, 1 × 10^6 cells, 104 mg/kg/inj day 1): 9%
% Increased Life Span (P388; Study 4, 1 × 10^6 cells, 104 mg/kg/inj day 1-9): 23%
% Increased Life Span (P388; Study 5, 1 × 10^6 cells, 37 mg/kg/inj day 2): 0%
% Increased Life Span (P388; Study 5, 1 × 10^6 cells, 37 mg/kg/inj day 2,4): 8%
% Increased Life Span (P388; Study 5, 1 × 10^6 cells, 37 mg/kg/inj day 2-6): 8%
% Increased Life Span (P388; Study 5, 1 × 10^6 cells, 62 mg/kg/inj day 2): 5%
% Increased Life Span (P388; Study 5, 1 × 10^6 cells, 62 mg/kg/inj day 2,4): 8%
% Increased Life Span (P388; Study 5, 1 × 10^6 cells, 62 mg/kg/inj day 2-6): 15%
% Increased Life Span (P388; Study 5, 1 × 10^6 cells, 104 mg/kg/inj day 2): 10%
% Increased Life Span (P388; Study 5, 1 × 10^6 cells, 104 mg/kg/inj day 2,4): 5%
% Increased Life Span (P388; Study 5, 1 × 10^6 cells, 104 mg/kg/inj day 2-6): 12%
toxicity (P388; Study 6, 140 mg/kg/inj day 2,4,6,8, 7 mice): toxic in one animal
% Increased Life Span (P388; Study 6, 1 × 10^6 cells, 140 mg/kg/inj day 2): 4%
% Increased Life Span (P388; Study 6, 1 × 10^6 cells, 140 mg/kg/inj day 2,4,6,8): 21%
% Increased Life Span (P388; Study 6, 1 × 10^6 cells, 140 mg/kg/inj day 2,6): 20%
% Cytotoxicity ([3]; day 3, 4320 min): 30%
% Cytotoxicity ([3]; day 5, 7200 min): 24%
% Cytotoxicity ([3]; day 7, 10080 min): 32%
% Cytotoxicity ([3]; day 9, 12960 min): 27%
cytotoxicity versus control group ([3]; p<0.05): statistically significant higherly cytotoxicity than the control group
Mean Survival Time ([4]; 200 mg/kg at -24 h, then 50 mg/kg/day day 0-6): 9.5 ± 2.1 days
Mean Survival Time ([4]; 200 mg/kg at -24 h only): 6.0 ± 1.3 days
protection, daily 50 mg/kg versus single 200 mg/kg dose ([4]; daily dose of 50 mg/kg after 200 mg/kg): protected to a greater degree
Increased Life Span ([5]; 37 mg/kg ip qd days 1-20): 7.0 % of Control
Postinoculation Life Span ([5]; 37 mg/kg ip qd days 1-20): 32.33 ± 3.67 days
Increased Life Span ([5]; 62 mg/kg ip qd days 1-20): 19.8 % of Control
Postinoculation Life Span ([5]; 62 mg/kg ip qd days 1-20, p 0.01): 36.33 ± 0.82 days
Increased Life Span ([5]; 104 mg/kg ip qd days 1-20): 20.3 % of Control
Postinoculation Life Span ([5]; 104 mg/kg ip qd days 1-20, p < 0.03): 36.50 ± 4.55 days
increase of IgM over cultures without compound 7 ([6]; SAC activated PBMNC): over a two fold increase
increase in IgM production ([6]; up to): up to 34 fold
